In PMC9696794, “Synthesis and Antimicrobial Activity of Short Analogues of the Marine Antimicrobial Peptide Turgencin A: Effects of SAR Optimizations, Cys-Cys Cyclization and Lipopeptide Modifications” (International Journal of Molecular Sciences, 2022):
Values after ≈ are worked out from the molar mass of the structure shown. Where a SMILES comes first, the peptide text is derived from it. Bridges are numbered along the chain shown (N, C = ends). The star is where a group is joined. Decanoyl = CCCCCCCCCC(=O)*; Octanoyl = CCCCCCCC(=O)*

Columns and labels:
all bacterial strains = assay: Antibacterial MIC assay, all bacterial strains together (range or geometric mean); assay type: cell-based; settings: for GM (geometric mean of the MIC values against all bacterial strains): Table 1, six bacterial strains; for GM of MIC Tot. bact.: Table S3, all bacterial test strains, MIC >256 set to 256
How it was run: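 Broth microdilution in Mueller–Hinton broth against B. subtilis, C. glutamicum, S. aureus, S. epidermidis RP62A, E. coli and P. aeruginosa; inoculum 2.5–3 × 10^4 CFU/mL, 35 °C, OD595 read hourly for 24 h. MIC: lowest peptide concentration giving OD below 10% of growth control; geometric mean across strains, triplicate.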

E. coli (Ec, ATCC 25922) = assay: microbe, parasite or virus in culture; assay type: cell-based, Escherichia coli; settings: ATCC 25922, 24 h
How it was run: (§1)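 Cultures grown in Mueller–Hinton broth were adjusted by OD600 to 2.5–3 × 10^4 CFU/mL and mixed with two-fold peptide dilutions from 256 to 1 µg/mL. Plates were incubated at 35 °C with OD595 monitored every hour for 24 h.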

[1] = tested on: S. epidermidis RP62A (Se, ATCC 35984); assay: microbe, parasite or virus in culture; assay type: cell-based, Staphylococcus epidermidis; settings: ATCC 35984, 24 h
How it was run: as §1

[2] = tested on: B. subtilis (Bs, ATCC 23857); assay: microbe, parasite or virus in culture; assay type: cell-based, Bacillus subtilis; settings: ATCC 23857, 24 h
How it was run: as §1

[3] = tested on: Gram-positive bacterial strains; settings: Table S3; MIC >256 set to 256
How it was run: as §1

[4] = tested on: human red blood cells (RBC); assay: Haemolytic activity assay; assay type: cell-based; settings: for Selectivity index (SI) G- / Selectivity index (SI) G+ / Selectivity index (SI) Fungi: Table S3, highest tested concentration used where EC50 above it; for Selectivity index (SI) G-: EC50/GM of Gram-negative strains; for Selectivity index (SI) G+: EC50/GM of Gram-positive strains; for Selectivity index (SI) Fungi: EC50/GM of fungi; for SI (selectivity index = EC50/GM): haemolytic EC50 over GM of MIC against all bacterial strains, Table 1; for RBC Tox. (EC50), haemolytic activity: human RBC, 1 h, 37 °C, concentration giving 50% haemolysis
How it was run: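 Washed human erythrocytes (1% hematocrit final) incubated 1 h at 37 °C with agitation with lipopeptides at 500–3.9 μM in PBS (≤1% DMSO), duplicates. Haemoglobin release read at 545 nm relative to 0.1% Triton X-100; EC50 is 50% haemolysis, averaged from three experiments.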

[5] = tested on: C. glutamicum (Cg, ATCC 13032); assay: microbe, parasite or virus in culture; assay type: cell-based, Corynebacterium glutamicum; settings: ATCC 13032, 24 h
How it was run: as §1

[6] = tested on: Gram-negative bacterial strains (E. coli and P. aeruginosa); assay: Antibacterial MIC assay, Gram-negative strains together (range or geometric mean); assay type: cell-based; settings: Table S3; MIC >256 set to 256
How it was run: as §1

[7] = tested on: P. aeruginosa (Pa, ATCC 27853); assay: microbe, parasite or virus in culture; assay type: cell-based, Pseudomonas aeruginosa; settings: ATCC 27853, 24 h
How it was run: as §1

[8] = tested on: C. albicans (Ca, ATCC 10231); assay: microbe, parasite or virus in culture; assay type: cell-based, Candida albicans; settings: ATCC 10231, 48 h
How it was run: (§2)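 Overnight cultures in potato dextrose broth with 2% glucose at 25–30 °C were diluted to approx. 4 × 10^5 spores/mL and mixed 1:1 with two-fold peptide dilutions plated at 256 to 1 µg/mL. After 48 h at room temperature, OD600 was read. MIC was the lowest concentration giving OD below 10% of the growth control, in triplicate.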

Rhodotorula sp. (Rh) = assay: microbe, parasite or virus in culture; assay type: cell-based; settings: 48 h
How it was run: as §2

[9] = tested on: fungi (A. pullulans, C. albicans, Rhodotorula sp.); assay: Antifungal MIC assay, all fungi together (range or geometric mean); assay type: cell-based; settings: Table S3; MIC >128 set to 128
How it was run: as §2

[10] = tested on: S. aureus (Sa, ATCC 9144); assay: microbe, parasite or virus in culture; assay type: cell-based, Staphylococcus aureus; settings: ATCC 9144, 24 h
How it was run: as §1

[11] = tested on: E. coli NR698 (outer membrane permeable mutant, imp4213); assay: microbe, parasite or virus in culture; settings: MC4100 NR698 imp4213, deficient outer membrane
Method: (§3) All cyclic and linear peptides were screened for antibacterial activity against four Gram-positive strains: B. subtilis (Bs, ATCC 23857), C. glutamicum (Cg, ATCC 13032), S. aureus (Sa, ATCC 9144) and S. epidermidis RP62A (Se, ATCC 35984), and two Gram-negative strains: E. coli (Ec, ATCC 25922) and P. aeruginosa (Pa, ATCC 27853). The activity was assessed using a broth microdilution assay according to a modified CLSI-based method. Briefly, overnight bacterial cultures were grown in Mueller–Hinton (MH) broth medium (Difco Laboratories, Detroit, MI, USA) for 2 h at room temperature. The optical density (OD600) was measured, and the bacterial suspensions were adjusted to 2.5–3 × 10^4 CFU/mL in MH medium. The bacterial suspension (50 µL) was distributed in 96-well plates (Nunc, Roskilde, Denmark) preloaded with two-fold dilution series (256 to 1 µg/mL) of peptide solutions (50 µL), giving a final well volume of 100 µL. The microplates were incubated in an EnVision 2103 microplate reader (PerkinElmer, Llantrisant, UK) at 35 °C, with OD595 recorded every hour for 24 h. MIC was defined as the lowest concentration of peptides showing an optical density less than 10% of the negative (growth) control, consisting of bacterial suspension and water. Polymyxin B sulfate (Sigma-Aldrich, St. Louis, MO, USA) and chlorhexidine acetate (CHX, Fresenius Kabi, Halden, Norway), both with concentrations ranging from 12.5 to 0.09 μg/mL, served as positive (growth inhibition) controls. All peptides were tested in triplicate.
(§4) MIC values were determined for all cyclic peptides against two E. coli strains: wild type (WT) MC4100 and the hyperpermeable variant NR698, having a deficient outer membrane. The NR698 strain, containing lptD4213/imp4213 mutation, was kindly provided by M. Grabowicz (Emory University School of Medicine, Rollins Research Center, Atlanta, GA, USA). The assay was performed in the same way as previously described for the antibacterial MIC assay.

[12] = tested on: E. coli MC4100 (wild type, WT); assay: microbe, parasite or virus in culture; settings: wild type
Method: as §3, §4

A. pullulans (Ap) = assay: microbe, parasite or virus in culture; assay type: cell-based, Aurobasidium pollulans; settings: 48 h
How it was run: as §2

Row | Compound | GM (geometric mean of the MIC values against all bacterial strains) (all bacterial strains) [µg/mL] | GM of MIC Tot. bact. (all bacterial strains) [µg/mL] | Antimicrobial Activity (MIC) Gram − Ec (E. coli (Ec, ATCC 25922)) [µg/mL] | Antimicrobial Activity (MIC) Gram + Se [1] [µg/mL] | Antimicrobial Activity (MIC) Gram + Bs [2] [µg/mL] | GM of MIC G+ [3] [µg/mL] | Selectivity index (SI) G- [4] | Selectivity index (SI) G+ [4] | Selectivity index (SI) Fungi [4] | RBC Tox. (EC50), haemolytic activity [4] [µg/mL] | Antimicrobial Activity (MIC) Gram + Cg [5] [µg/mL] | GM of MIC G- [6] [µg/mL] | Antimicrobial Activity (MIC) Gram − Pa [7] [µg/mL] | Antimicrobial Activity (MIC) Fungi Ca [8] [µg/mL] | Antimicrobial Activity (MIC) Fungi Rh (Rhodotorula sp. (Rh)) [µg/mL] | GM of MIC Fungi [9] [µg/mL] | Antimicrobial Activity (MIC) Gram + Sa [10] [µg/mL] | MIC E. coli NR698 (mutant) [11] [µg/mL] | MIC E. coli MC4100 (WT) [12] [µg/mL] | Antimicrobial Activity (MIC) Fungi Ap (A. pullulans (Ap)) [µg/mL] | other results
1 | CCCCCCCC(=O)N[C@H]1CSSC[C@@H](C(=O)N[C@@H](CCCNC(=N)N)C(=O)N[C@@H](CC(C)C)C(N)=O)NC(=O)[C@H](CCCNC(=N)N)NC(=O)[C@H](Cc2c[nH]c3ccccc23)NC(=O)[C@H](Cc2c[nH]c3ccccc23)NC(=O)CNC(=O)[C@H](Cc2c[nH]c3ccccc23)NC(=O)[C@H](CCCNC(=N)N)NC(=O)[C@H](CCCNC(=N)N)NC(=O)CNC1=O [Peptide C8-cTurg-6, C8- (CGRRWGWWRC)RL-NH2] (Octanoyl-CGRRWGWWRCRL-NH2; disulfide 1-10) | 6 | 6 | 8 | 4 | 4 | 5 | 3 | 6 | 1 | 30 | 4 | 11 | 16 | 64 | 32 | 51 | 8 | 8 (≈ 4.55 µM) | 8 (≈ 4.55 µM) | 64 | SI (selectivity index = EC50/GM) [4]: 5
2 | CCCCCCCCCC(=O)N[C@H]1CSSC[C@@H](C(=O)N[C@@H](CCCCN)C(=O)N[C@@H](CC(C)C)C(N)=O)NC(=O)[C@H](CCCCN)NC(=O)[C@H](Cc2c[nH]c3ccccc23)NC(=O)CNC(=O)CNC(=O)[C@@H]2CCCN2C(=O)[C@H](CCCCN)NC(=O)[C@H](CCCCN)NC(=O)CNC1=O [Peptide C10-cTurg-1, C10 -(CGKKPGGWKC)KL-NH2] (Decanoyl-CGKKPGGWKCKL-NH2; disulfide 1-10) | 6 | 6 | 8 | 4 | 2 | 4 | > 60 | > 239 | > 47 | >956 | 2 | 16 | 32 | 64 | 4 | 20 | 16 | 4 (≈ 2.75 µM) | 8 (≈ 5.49 µM) | 32 | 
3 | CCCCCCCCCC(=O)N[C@H]1CSSC[C@@H](C(=O)N[C@@H](CCCCN)C(=O)N[C@@H](CC(C)C)C(N)=O)NC(=O)[C@H](CCCCN)NC(=O)[C@H](Cc2c[nH]c3ccccc23)NC(=O)CNC(=O)[C@H](Cc2c[nH]c3ccccc23)NC(=O)[C@H](Cc2c[nH]c3ccccc23)NC(=O)[C@H](CCCCN)NC(=O)[C@H](CCCCN)NC(=O)CNC1=O [Peptide C10-cTurg-2, C10- (CGKKWWGWKC)KL-NH2] (Decanoyl-CGKKWWGWKCKL-NH2; disulfide 1-10) | 5 | 5 | 8 | 4 | 2 | 3 | 13 | 32 | 3 | 106 | 4 | 8 | 8 | 64 | 16 | 32 | 4 | 4 (≈ 2.39 µM) | 8 (≈ 4.78 µM) | 32 | SI (selectivity index = EC50/GM) [4]: 24
